Species: Rattus norvegicus
Test: DrugMatrix - Regimen: Daily Repeat
Type: toxicity, organism-based, Sprague-Dawley
Design: regimen Daily Repeat, gender Male, age 6-8 weeks
Conditions: in vivo, iv, vehicle 100 % SALINE; for ABSOLUTE BASOPHIL / ABSOLUTE EOSINOPHIL / ABSOLUTE LYMPHOCYTE / ABSOLUTE MONOCYTE / ABSOLUTE SEGMENTED NEUTROPHIL / BASOPHIL / EOSINOPHIL / ERYTHROCYTE COUNT / HEMATOCRIT / HEMOGLOBIN / LEUKOCYTE COUNT / LYMPHOCYTE / MEAN CORPUSCULAR HEMOGLOBIN / MEAN CORPUSCULAR HEMOGLOBIN CONCENTRATION / MEAN CORPUSCULAR VOLUME / MONOCYTE / NEUTROPHIL / NUCLEATED RED BLOOD CELLS: tissue Blood; for ALANINE AMINOTRANSFERASE / ALKALINE PHOSPHATASE / ASPARTATE AMINOTRANSFERASE / BLOOD UREA NITROGEN / CARBON DIOXIDE / CHOLESTEROL / CREATINE PHOSPHOKINASE / CREATININE / GLUCOSE / LACTATE DEHYDROGENASE / LIPASE / SODIUM / TOTAL BILIRUBIN / TOTAL PROTEIN / URIC ACID: tissue Plasma
[1] = 0 mg/kg, 72 h, dose level Control, time 3 day
[2] = 0 mg/kg, 120 h, dose level Control, time 5 day
[3] = […], 72 h, dose 0.27 mg/Kg, dose level Low, time 3 day
[4] = […], 72 h, dose 2.7 mg/Kg, dose level High, time 3 day

COc1cccc2c1C(=O)c1c(O)c3c(c(O)c1C2=O)C[C@@](O)(C(=O)CO)C[C@@H]3O[C@H]1C[C@H](N)[C@@H](O)[C@H](C)O1 [EPIRUBICIN]
ABSOLUTE BASOPHIL [1]: 0 CELLS/uL | ABSOLUTE EOSINOPHIL [1]: 23.17 CELLS/uL | ABSOLUTE LYMPHOCYTE [1]: 12448.83 CELLS/uL | ABSOLUTE MONOCYTE [1]: 259.5 CELLS/uL | ABSOLUTE SEGMENTED NEUTROPHIL [1]: 1635.17 CELLS/uL | BASOPHIL [1]: 0% | EOSINOPHIL [1]: 0.17% | ERYTHROCYTE COUNT [1]: 5.35 x10E6/uL | HEMATOCRIT [1]: 34.85% | HEMOGLOBIN [1]: 13.72 G/DL | LEUKOCYTE COUNT [1]: 14.37 x10E3/uL | LYMPHOCYTE [1]: 86.5% | MEAN CORPUSCULAR HEMOGLOBIN [1]: 25.67 pg | MEAN CORPUSCULAR HEMOGLOBIN CONCENTRATION [1]: 39.38 G/DL | MEAN CORPUSCULAR VOLUME [1]: 65.2 fL | MONOCYTE [1]: 1.83% | NEUTROPHIL [1]: 11.5% | NUCLEATED RED BLOOD CELLS [1]: 0 /100WBC | ALANINE AMINOTRANSFERASE [1]: 56.5 u/L | ALKALINE PHOSPHATASE [1]: 334 u/L | ASPARTATE AMINOTRANSFERASE [1]: 85.5 u/L | BLOOD UREA NITROGEN [1]: 16.33 mg/dL | CARBON DIOXIDE [1]: 26.5 mmol/L | CHOLESTEROL [1]: 70.33 mg/dL | CREATINE PHOSPHOKINASE [1]: 339.5 u/L | CREATININE [1]: 0.18 mg/dL | GLUCOSE [1]: 155.17 mg/dL | LACTATE DEHYDROGENASE [1]: 382 u/L | LIPASE [1]: 9.5 u/L | SODIUM [1]: 143.87 MEQ/L | TOTAL BILIRUBIN [1]: 0.2 mg/dL | TOTAL PROTEIN [1]: 5.98 G/DL | URIC ACID [1]: 1.53 mg/dL | ABSOLUTE BASOPHIL [2]: 0 CELLS/uL | ABSOLUTE EOSINOPHIL [2]: 16.17 CELLS/uL | ABSOLUTE LYMPHOCYTE [2]: 10653.67 CELLS/uL | ABSOLUTE MONOCYTE [2]: 17.17 CELLS/uL | ABSOLUTE SEGMENTED NEUTROPHIL [2]: 746.33 CELLS/uL | BASOPHIL [2]: 0% | EOSINOPHIL [2]: 0.17% | ERYTHROCYTE COUNT [2]: 5.88 x10E6/uL | HEMATOCRIT [2]: 36.68% | HEMOGLOBIN [2]: 14.6 G/DL | LEUKOCYTE COUNT [2]: 11.43 x10E3/uL | LYMPHOCYTE [2]: 91.83% | MEAN CORPUSCULAR HEMOGLOBIN [2]: 24.85 pg | MEAN CORPUSCULAR HEMOGLOBIN CONCENTRATION [2]: 39.8 G/DL | MEAN CORPUSCULAR VOLUME [2]: 62.47 fL | MONOCYTE [2]: 0.17% | NEUTROPHIL [2]: 7.83% | NUCLEATED RED BLOOD CELLS [2]: 0 /100WBC | ALANINE AMINOTRANSFERASE [2]: 45.5 u/L | ALKALINE PHOSPHATASE [2]: 330.17 u/L | ASPARTATE AMINOTRANSFERASE [2]: 93.33 u/L | BLOOD UREA NITROGEN [2]: 18 mg/dL | CARBON DIOXIDE [2]: 25.5 mmol/L | CHOLESTEROL [2]: 73.5 mg/dL | CREATINE PHOSPHOKINASE [2]: 434 u/L | CREATININE [2]: 0.2 mg/dL | GLUCOSE [2]: 148.83 mg/dL | LACTATE DEHYDROGENASE [2]: 603.83 u/L | LIPASE [2]: 10 u/L | SODIUM [2]: 139.78 MEQ/L | TOTAL BILIRUBIN [2]: 0.15 mg/dL | TOTAL PROTEIN [2]: 6.1 G/DL | URIC ACID [2]: 2.02 mg/dL | ABSOLUTE BASOPHIL [3]: 0 CELLS/uL | ABSOLUTE EOSINOPHIL [3]: 28 CELLS/uL | ABSOLUTE LYMPHOCYTE [3]: 4991.67 CELLS/uL | ABSOLUTE MONOCYTE [3]: 38 CELLS/uL | ABSOLUTE SEGMENTED NEUTROPHIL [3]: 375.67 CELLS/uL | BASOPHIL [3]: 0% | EOSINOPHIL [3]: 0.67% | ERYTHROCYTE COUNT [3]: 4.95 x10E6/uL | HEMATOCRIT [3]: 31.43% | HEMOGLOBIN [3]: 12.5 G/DL | LEUKOCYTE COUNT [3]: 5.43 x10E3/uL | LYMPHOCYTE [3]: 91.67% | MEAN CORPUSCULAR HEMOGLOBIN [3]: 25.3 pg | MEAN CORPUSCULAR HEMOGLOBIN CONCENTRATION [3]: 39.8 G/DL | MEAN CORPUSCULAR VOLUME [3]: 63.57 fL | MONOCYTE [3]: 0.67% | NEUTROPHIL [3]: 7% | NUCLEATED RED BLOOD CELLS [3]: 0 /100WBC | ABSOLUTE BASOPHIL [4]: 0 CELLS/uL | ABSOLUTE EOSINOPHIL [4]: 0 CELLS/uL | ABSOLUTE LYMPHOCYTE [4]: 4049.67 CELLS/uL | ABSOLUTE MONOCYTE [4]: 29.33 CELLS/uL | ABSOLUTE SEGMENTED NEUTROPHIL [4]: 387.67 CELLS/uL | BASOPHIL [4]: 0% | EOSINOPHIL [4]: 0% | ERYTHROCYTE COUNT [4]: 5.35 x10E6/uL | HEMATOCRIT [4]: 33.77% | HEMOGLOBIN [4]: 13.47 G/DL | LEUKOCYTE COUNT [4]: 4.47 x10E3/uL | LYMPHOCYTE [4]: 90.67% | MEAN CORPUSCULAR HEMOGLOBIN [4]: 25.2 pg | MEAN CORPUSCULAR HEMOGLOBIN CONCENTRATION [4]: 39.87 G/DL | MEAN CORPUSCULAR VOLUME [4]: 63.03 fL
